Calls of active or inactive are those of the source.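 How the source made its calls: active means inhibition of WEE1 degradation of at least 19%, seen as raised luminescence; inactive means the rest.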
Molecular target: Wee1-like protein kinase (Homo sapiens) (UniProt P30291)
Experiment: WEE1-luciferase stabilization in HeLa cells – cell-based, WEE1K328M-luciferase, luminescence, powder samples, SAR follow-up (AID 434972)
Conditions: HeLa WEE1K328M-luciferase stability, at 0.25 µM, active compounds read high

Chain of Wee1-like protein kinase (Homo sapiens) (P30291 whole entry K328M): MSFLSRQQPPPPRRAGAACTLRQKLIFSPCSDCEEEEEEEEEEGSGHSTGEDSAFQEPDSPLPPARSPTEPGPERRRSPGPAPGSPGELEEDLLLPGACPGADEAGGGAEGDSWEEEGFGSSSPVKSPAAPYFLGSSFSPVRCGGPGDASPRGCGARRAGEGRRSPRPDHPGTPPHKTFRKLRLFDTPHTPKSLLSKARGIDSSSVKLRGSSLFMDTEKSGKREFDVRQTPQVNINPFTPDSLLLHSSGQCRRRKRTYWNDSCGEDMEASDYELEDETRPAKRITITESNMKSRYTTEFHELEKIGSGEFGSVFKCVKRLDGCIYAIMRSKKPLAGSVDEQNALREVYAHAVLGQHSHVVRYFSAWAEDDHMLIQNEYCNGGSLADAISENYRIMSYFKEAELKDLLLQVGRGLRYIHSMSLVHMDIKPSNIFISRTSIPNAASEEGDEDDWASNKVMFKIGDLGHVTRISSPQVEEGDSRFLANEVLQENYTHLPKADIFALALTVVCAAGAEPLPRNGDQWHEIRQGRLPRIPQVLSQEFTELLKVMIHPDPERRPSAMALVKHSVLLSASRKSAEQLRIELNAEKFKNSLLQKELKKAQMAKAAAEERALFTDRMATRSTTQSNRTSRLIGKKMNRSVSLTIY

Structure (SMILES)	inhibition of WEE1 degradation
Cc1ccnc(NC(=O)CCCOc2cc(=O)n(C)c3ccccc23)c1	6.4% (inactive)
c1ccc2c(c1)CCN2c1nc(NCc2nc3ccccc3[nH]2)c2ncn(-c3ccsc3)c2n1	7.9% (inactive)
c1ccc2[nH]c(CNc3nc(N4CCNCC4)nc4c3ncn4-c3ccsc3)nc2c1	14.5% (inactive)
O=C(NC1CC1)c1ccc(-c2nc(NCc3nc4ccccc4[nH]3)c3ncn(-c4ccsc4)c3n2)cc1	3.6% (inactive)
OCCN1CCN(c2nc(NCc3nc4ccccc4[nH]3)c3ncn(-c4ccsc4)c3n2)CC1	10% (inactive)
CC(C)n1cnc2c(NCc3nc4ccccc4[nH]3)nc(Nc3cccnc3)nc21	3.4% (inactive)
Nc1cccc2[nH]c(CNc3nc(N4CCOCC4)nc4c3ncn4-c3ccsc3)nc12	15.6% (inactive)
FC(F)(F)c1ccc2nc(CNc3nc(N4CCOCC4)nc4c3ncn4-c3ccsc3)[nH]c2c1	46.3%
O=[N+]([O-])c1cccc2[nH]c(CNc3nc(N4CCOCC4)nc4c3ncn4-c3ccsc3)nc12	100%
c1ccc2cc3[nH]c(CNc4nc(N5CCOCC5)nc5c4ncn5-c4ccsc4)nc3cc2c1	48.3%
c1ccc2[nH]c(CNc3nc(N4CCCC4)nc4c3ncn4-c3ccsc3)nc2c1	9.9% (inactive)
NCCN1CCN(c2nc(NCc3nc4ccccc4[nH]3)c3ncn(-c4ccsc4)c3n2)CC1	8.6% (inactive)
Clc1ccc2nc(CNc3nc(N4CCOCC4)nc4c3ncn4-c3ccsc3)[nH]c2c1	101%
c1ccc2[nH]c(CNc3nc(N4CCSCC4)nc4c3ncn4-c3ccsc3)nc2c1	11.4% (inactive)
c1ccc2[nH]c(CNc3nc(N4CCOCC4)nc4c3ncn4-c3ccsc3)nc2c1	56.8%
Nc1ccc2nc(CNc3nc(N4CCOCC4)nc4c3ncn4-c3ccsc3)[nH]c2c1	8.3% (inactive)
c1ccc2[nH]c(CNc3nc(N4CCCCC4)nc4c3ncn4-c3ccsc3)nc2c1	10.5% (inactive)
c1ccc(-n2cnc3c(NCc4nc5ccccc5[nH]4)nc(N4CCOCC4)nc32)cc1	4% (inactive)
O=[N+]([O-])c1ccc2nc(CNc3nc(N4CCOCC4)nc4c3ncn4-c3ccsc3)[nH]c2c1	18.7% (inactive)

Structure (SMILES)	inhibition of WEE1 degradation
Fc1ccc2nc(CNc3nc(N4CCOCC4)nc4c3ncn4-c3ccsc3)[nH]c2c1	81.4%
CN1CCN(c2nc(NCc3nc4ccccc4[nH]3)c3ncn(-c4ccsc4)c3n2)CC1	14.1% (inactive)
C=CCN(CC=C)c1nc(NCc2nc3ccccc3[nH]2)c2ncn(-c3ccsc3)c2n1	8.2% (inactive)
FC(F)(F)c1cccc2[nH]c(CNc3nc(N4CCOCC4)nc4c3ncn4-c3ccsc3)nc12	10.8% (inactive)
CCOC(=O)c1cccc2[nH]c(CNc3nc(N4CCOCC4)nc4c3ncn4C(C)C)nc12	17% (inactive)
CC(C)n1cnc2c(NCc3nc4ccccc4[nH]3)nc(N3CCOCC3)nc21	4.1% (inactive)
c1ccc2[nH]c(CNc3nc(NCCN4CCOCC4)nc4c3ncn4-c3ccsc3)nc2c1	8.1% (inactive)
CCOC(=O)c1cccc2[nH]c(CNc3nc(N4CCOCC4)nc4c3ncn4-c3ccsc3)nc12	97.3%
c1ccc2[nH]c(CNc3nc(Nc4cnccn4)nc4c3ncn4-c3ccsc3)nc2c1	2.9% (inactive)
C[C@@H](Nc1nc(NCc2nc3ccccc3[nH]2)c2ncn(-c3ccsc3)c2n1)c1ccccc1	9.2% (inactive)
FC(F)(F)c1cc(Br)c2nc(CNc3nc(N4CCOCC4)nc4c3ncn4-c3ccsc3)[nH]c2c1	13.4% (inactive)
CC(C)n1cnc2c(NCc3nc4ccccc4[nH]3)nc(Nc3cnccn3)nc21	5.3% (inactive)
CC(C)n1cnc2c(NCc3nc4ccccc4[nH]3)nc(Nc3ccncn3)nc21	4% (inactive)
COc1ccc2nc(CNc3nc(N4CCOCC4)nc4c3ncn4-c3ccsc3)[nH]c2c1	79.5%
c1cnc2ccc3[nH]c(CNc4nc(N5CCOCC5)nc5c4ncn5-c4ccsc4)nc3c2c1	22%
N#Cc1ccc2nc(CNc3nc(N4CCOCC4)nc4c3ncn4-c3ccsc3)[nH]c2c1	85.9%
c1ccc(N2CCN(c3nc(NCc4nc5ccccc5[nH]4)c4ncn(-c5ccsc5)c4n3)CC2)nc1	4% (inactive)
CC(C)n1cnc2c(NCc3nc4c([N+](=O)[O-])cccc4[nH]3)nc(N3CCOCC3)nc21	111%
